From ChEMBL document CHEMBL5316287 (J Med Chem, 2023)

Columns and labels:
[1] = Half life in BALB/cAnNCrlCrlj mouse at 10 mg/kg,po; assay type: ADME, organism-based; details: in vivo
[2] = Unbound AUC in BALB/cAnNCrlCrlj mouse at 10 mg/kg,po; assay type: ADME, organism-based; details: in vivo
[3] = AUC in BALB/cAnNCrlCrlj mouse at 10 mg/kg,po; assay type: ADME, organism-based; parameters: dose 10 mg/kg, route po; details: in vivo
[4] = Cmax in BALB/cAnNCrlCrlj mouse at 10 mg/kg,po; assay type: ADME, organism-based; parameters: dose 10 mg/kg, route po; details: in vivo
[5] = Oral bioavailability in BALB/cAnNCrlCrlj mouse at 10 mg/kg; assay type: ADME, organism-based; details: in vivo; for F: po, 10 mg/kg
[6] = Unbound clearance in BALB/cAnNCrlCrlj mouse at 2 mg/kg,iv administered as DMA/Tween80/saline (1:1:8 ratio) solution; assay type: ADME, organism-based; details: in vivo
[7] = Volume of distribution at steady state in BALB/cAnNCrlCrlj mouse at 2 mg/kg,iv administered as DMA/Tween80/saline (1:1:8 ratio) solution; assay type: ADME, organism-based; details: in vivo, read-out: Vdss
[8] = target: T1, Histone acetyltransferase p300 (Homo sapiens, UniProt Q09472); experiment: Inhibition of EP300 in human LK2 cells assessed as reduction in intracellular H3K27 acetylation incubated for 3 hrs by chemiluminescence based ELISA; assay type: cell-based
[9] = 1-Octanol/PBS partition coefficient, logD of the compound at pH 7.4 incubated for 30 mins by shake flask technique based HPLC-LC/MS analysis; assay type: physicochemical
[10] = target: T1, Histone acetyltransferase p300; experiment: Inhibition of recombinant human full length EP300 assessed as inhibition of H4 peptide acetylation using biotinylated H4 peptide as substrate in presence of Acetyl-CoA incubated for 60 mins by TR-FRET assay
[11] = Metabolic stability in human liver microsomes assessed as intrinsic clearance at 1 uM; assay type: ADME, Microsome
[12] = Metabolic stability in mouse liver microsomes assessed as intrinsic clearance at 1 uM; assay type: ADME, Microsome
[13] = Clearance in BALB/cAnNCrlCrlj mouse at 1 mg/kg,iv administered as DMA/Tween80/saline (1:1:8 ratio) solution; assay type: ADME, organism-based; details: in vivo
[14] = Volume of distribution at steady state in BALB/cAnNCrlCrlj mouse at 1 mg/kg,iv administered as DMA/Tween80/saline (1:1:8 ratio) solution; assay type: ADME, organism-based; details: in vivo, read-out: Vdss
[15] = Unbound clearance in BALB/cAnNCrlCrlj mouse at 1 mg/kg,iv administered as DMA/Tween80/saline (1:1:8 ratio) solution; assay type: ADME, organism-based; details: in vivo
[16] = Unbound clearance in BALB/cAnNCrlCrlj mouse at 1 mg/kg,iv administered as DMS0/10% SBE-7-betaCD (1:9 ratio) solution; assay type: ADME, organism-based; details: in vivo
[17] = Volume of distribution at steady state in BALB/cAnNCrlCrlj mouse at 1 mg/kg,iv administered as DMS0/10% SBE-7-betaCD (1:9 ratio) solution; assay type: ADME, organism-based; details: in vivo, read-out: Vdss
[18] = BALB/cAnNCrlCrlj, read-out: AUC

T1 sequence (Q09472 whole entry): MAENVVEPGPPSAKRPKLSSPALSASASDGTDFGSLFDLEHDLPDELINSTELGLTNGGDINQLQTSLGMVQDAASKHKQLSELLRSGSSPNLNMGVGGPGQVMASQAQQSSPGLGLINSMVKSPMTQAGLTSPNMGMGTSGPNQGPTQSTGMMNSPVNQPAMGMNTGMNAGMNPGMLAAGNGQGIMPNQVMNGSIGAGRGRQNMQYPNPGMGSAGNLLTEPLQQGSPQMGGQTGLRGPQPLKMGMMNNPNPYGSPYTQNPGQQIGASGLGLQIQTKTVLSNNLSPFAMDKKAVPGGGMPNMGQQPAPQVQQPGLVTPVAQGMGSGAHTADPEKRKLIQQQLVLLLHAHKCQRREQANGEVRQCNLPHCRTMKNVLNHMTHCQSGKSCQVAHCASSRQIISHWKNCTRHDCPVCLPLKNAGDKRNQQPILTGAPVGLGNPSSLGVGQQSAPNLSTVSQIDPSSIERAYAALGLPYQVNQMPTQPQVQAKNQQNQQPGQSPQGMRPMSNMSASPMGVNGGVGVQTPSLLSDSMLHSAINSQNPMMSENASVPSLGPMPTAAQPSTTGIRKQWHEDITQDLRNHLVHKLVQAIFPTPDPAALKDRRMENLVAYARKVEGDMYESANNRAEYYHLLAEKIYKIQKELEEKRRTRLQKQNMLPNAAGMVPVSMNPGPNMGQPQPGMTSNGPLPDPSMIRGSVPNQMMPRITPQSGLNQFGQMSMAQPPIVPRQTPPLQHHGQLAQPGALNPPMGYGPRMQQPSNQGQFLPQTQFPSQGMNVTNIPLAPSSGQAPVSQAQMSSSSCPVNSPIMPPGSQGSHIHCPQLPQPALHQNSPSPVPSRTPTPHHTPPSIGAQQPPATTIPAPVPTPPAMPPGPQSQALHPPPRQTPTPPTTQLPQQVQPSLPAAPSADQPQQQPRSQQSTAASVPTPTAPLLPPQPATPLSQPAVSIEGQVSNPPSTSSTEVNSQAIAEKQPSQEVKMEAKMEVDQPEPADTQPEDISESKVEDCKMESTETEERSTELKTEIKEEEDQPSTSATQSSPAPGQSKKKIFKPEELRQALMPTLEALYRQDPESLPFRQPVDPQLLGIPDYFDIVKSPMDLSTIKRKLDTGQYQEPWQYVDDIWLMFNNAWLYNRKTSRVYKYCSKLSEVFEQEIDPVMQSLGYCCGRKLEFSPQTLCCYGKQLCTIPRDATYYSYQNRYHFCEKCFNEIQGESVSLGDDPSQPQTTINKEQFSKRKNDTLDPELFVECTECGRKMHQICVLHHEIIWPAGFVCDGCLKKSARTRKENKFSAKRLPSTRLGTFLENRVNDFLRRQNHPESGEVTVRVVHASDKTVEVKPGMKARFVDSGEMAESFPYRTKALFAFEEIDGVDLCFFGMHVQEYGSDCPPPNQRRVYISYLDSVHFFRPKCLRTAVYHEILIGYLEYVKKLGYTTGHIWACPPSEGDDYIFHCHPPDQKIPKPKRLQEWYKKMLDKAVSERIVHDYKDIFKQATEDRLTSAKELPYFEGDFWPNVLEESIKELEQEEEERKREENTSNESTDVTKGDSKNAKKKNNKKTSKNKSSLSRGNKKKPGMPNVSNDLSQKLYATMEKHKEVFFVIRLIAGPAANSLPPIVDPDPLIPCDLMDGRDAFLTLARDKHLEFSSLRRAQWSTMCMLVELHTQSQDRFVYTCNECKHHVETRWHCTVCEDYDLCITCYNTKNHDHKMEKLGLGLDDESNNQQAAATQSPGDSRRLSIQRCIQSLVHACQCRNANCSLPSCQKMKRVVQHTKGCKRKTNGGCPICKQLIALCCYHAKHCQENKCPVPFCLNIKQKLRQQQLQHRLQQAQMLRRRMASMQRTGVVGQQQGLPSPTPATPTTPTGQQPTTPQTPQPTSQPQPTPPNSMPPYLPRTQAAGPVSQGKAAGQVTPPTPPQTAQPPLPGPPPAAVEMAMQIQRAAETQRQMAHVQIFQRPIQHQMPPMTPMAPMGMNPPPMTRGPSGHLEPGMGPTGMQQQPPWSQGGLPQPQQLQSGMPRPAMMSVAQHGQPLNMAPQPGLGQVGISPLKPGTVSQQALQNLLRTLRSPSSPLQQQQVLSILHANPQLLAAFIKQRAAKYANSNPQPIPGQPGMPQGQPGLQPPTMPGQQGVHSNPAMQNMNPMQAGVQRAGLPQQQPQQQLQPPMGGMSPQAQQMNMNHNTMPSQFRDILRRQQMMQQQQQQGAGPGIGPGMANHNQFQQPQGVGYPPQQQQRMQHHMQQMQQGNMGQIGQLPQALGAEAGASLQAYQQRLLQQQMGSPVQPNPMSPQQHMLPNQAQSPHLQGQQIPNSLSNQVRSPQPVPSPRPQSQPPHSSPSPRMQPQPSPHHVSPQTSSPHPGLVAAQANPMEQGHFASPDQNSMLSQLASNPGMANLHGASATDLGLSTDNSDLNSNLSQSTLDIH

Row | Structure (SMILES) | half-life [1] | Cmax [4] | IC50 [8] | logD at 0.5 h [9] | intrinsic clearance [11] | intrinsic clearance (CLint) [12] | further results
1 | COc1ccc(C2(C(=O)N3CCOCC(Cc4cccc5[nH]ncc45)C3)CCCC2)cc1 (stereo not given) | 120 min | 80 nM |  |  |  |  | fAUC [2]: 0.006 µM·h; AUC [3]: 0.1 µM·h; F [5]: 31%; CL free [6]: 1740 mL/min/kg; Vd [7]: 1.76 L/kg
2 | CS(=O)(=O)c1ccc(C2(C(=O)N3C[C@H](F)C[C@@H]3C(=O)Nc3ccc4[nH]ncc4n3)CCC(F)(F)CC2)cc1 | 90 min | 90 nM | 95 nM | 1.6 |  |  | AUC [3, 18]: 0.23 µM·h; IC50 [10]: 55 nM
3 | COc1ccc(C2(C(=O)N3C[C@H](F)C[C@@H]3C(=O)Nc3ccc4[nH]ncc4n3)CCC(F)(F)CC2)cc1F |  |  | 57 nM | 3 | 0.04 mL/min/mg |  | IC50 [10]: 36 nM
4 | COc1ccc(C2(C(=O)N3CCC[C@@H]3C(=O)Nc3cccc4[nH]ccc34)CCCC2)cc1 |  |  | 304 nM |  |  |  | 
5 | COc1c(F)cc(C2(C(=O)N3C[C@H](F)C[C@@H]3C(=O)Nc3ccc4[nH]ncc4n3)CCC(F)(F)CC2)cc1F |  |  | 142 nM | 3.2 | 0.06 mL/min/mg |  | 
6 | COc1ccc(C2(C(=O)N3C[C@H](F)C[C@@H]3C(=O)Nc3ccc4[nH]ncc4n3)CCCCC2)cn1 |  |  | 15 nM | 2.3 | 0.11 mL/min/mg | 0.16 mL/min/mg | 
7 | COc1ccc(C2(C(=O)N3C[C@H](F)C[C@@H]3C(=O)Nc3ccc4[nH]ncc4n3)CCOCC2)cc1 |  |  | 101 nM | 1.6 | 0.01 mL/min/mg | 0.05 mL/min/mg | 
8 | O=C(Nc1ccc2[nH]ncc2n1)[C@H]1C[C@@H](F)CN1C(=O)C1(c2ccc(C(=O)C(F)(F)F)cc2)CCCCC1 |  |  | 21 nM | 3.4 | 0.15 mL/min/mg | 0.38 mL/min/mg | 
9 | COc1ccc(C2(C(=O)N3C[C@H](O)C[C@@H]3C(=O)Nc3ccc4[nH]ncc4n3)CCCCC2)cc1 |  |  | 106 nM |  |  |  | IC50 [10]: 50 nM
10 | COc1ccc(C2(C(=O)N3C[C@H](F)C[C@@H]3C(=O)Nc3ccc4[nH]ncc4n3)CCCCC2)cc1F | 72 min | 12700 nM | 16 nM | 3.1 | 0.23 mL/min/mg | 0.4 mL/min/mg | fAUC [2]: 1.39 µM·h; AUC [3, 18]: 16.8 µM·h; clearance [13]: 6.3 mL/min/kg; Vd [14]: 0.15 L/kg; bioavailability ([5]; BALB/cAnNCrlCrlj): 62%; CL free [15]: 76 mL/min/kg
11 | O=C(Nc1ccc2[nH]ncc2n1)[C@H]1C[C@@H](F)CN1C(=O)C1(c2ccc(O)cc2)CCCCC1 | 168 min | 340 nM | 13 nM | 2.7 | 0.14 mL/min/mg |  | AUC [3, 18]: 0.87 µM·h
12 | COc1ccc(C2(C(=O)N3C[C@H](F)C[C@@H]3C(=O)Nc3ccc4[nH]ncc4n3)CC(C)(C)C2)cc1 |  |  | 53 nM | 3.1 | 0.1 mL/min/mg | 0.24 mL/min/mg | 
13 | COc1ccc(C2(C(=O)N3C[C@H](F)C[C@@H]3C(=O)Nc3ccc4[nH]ncc4n3)CC(F)(F)C2)cc1 | 126 min | 1610 nM | 20 nM | 2.1 | 0.04 mL/min/mg | 0.12 mL/min/mg | fAUC [2]: 0.268 µM·h; AUC [3, 18]: 2.29 µM·h
14 | COc1ccc(C2(C(=O)N3CCC[C@@H]3C(=O)Nc3ccc4[nH]ccc4c3)CCCC2)cc1 |  |  | 709 nM |  |  |  | 
15 | COc1ccc(C2(C(=O)N3CCC[C@@H]3C(=O)Nc3ccc4[nH]ncc4n3)CCCC2)cc1 |  |  | 52 nM |  |  |  | IC50 [10]: 24 nM
16 | COc1ccc(C(C)(C)C(=O)N2C[C@H](F)C[C@@H]2C(=O)Nc2ccc3[nH]ncc3n2)cc1 |  |  | 77 nM | 1.9 | 0.01 mL/min/mg | 0.38 mL/min/mg | 
17 | COc1ccc(C2(C(=O)N3CCC[C@@H]3C(=O)Nc3cccc4[nH]ncc34)CCCC2)cc1 | 36 min | 320 nM |  |  |  |  | fAUC [2]: 0.029 µM·h; AUC [3, 18]: 0.42 µM·h
18 | COc1ccc(C2(C(=O)N3CCC[C@@H]3C(=O)Nc3ccc4cn[nH]c4c3)CCCC2)cc1 |  |  | 2790 nM |  |  |  | IC50 [10]: 500 nM
19 | COc1ccc(C2(C(=O)N3CS(=O)(=O)C[C@@H]3C(=O)Nc3ccc4[nH]ncc4n3)CCCCC2)cc1 |  |  | 27 nM |  |  |  | 
20 | COc1ccc(C2(C(=O)N3CCC[C@@H]3C(=O)Nc3ccc4[nH]ncc4c3)CCCC2)cc1 |  |  | 916 nM |  |  |  | 
21 | COc1ccc(C2(C(=O)N3C[C@H](F)C[C@@H]3C(=O)Nc3ccc4[nH]ncc4n3)CCCCC2)cc1 | 84 min | 10800 nM |  | 3.1 | 0.31 mL/min/mg | 0.77 mL/min/mg | fAUC [2]: 0.6 µM·h; AUC [3]: 15 µM·h; CL free [16]: 133 mL/min/kg; F [5]: 2.2%; Vd [17]: 0.29 L/kg
